Results as given in patent US20090281114A1, “INDOLYLALKYL DERIVATIVES OF PYRIMIDINYLPIPERAZINE AND METABOLITES THEREOF FOR TREATMENT OF ANXIETY, DEPRESSION, AND SEXUAL DYSFUNCTION” (Fabre-Kramer Pharmaceuticals, Inc., priority 2008, published 2009).
pIC50: −log10 of the molar value. Structures can show the parent of a compound that is named as a salt.

Columns and labels:
[1] = target: 5-HT1D binding site; experiment: 5-HT1D binding site affinity (tritiated serotonin; method of Heuring and Peroutka with minor modifications); conditions: in vitro
Protocol: Determination of 5-HT1D binding properties was accomplished employing methodology such as that described by Heuring and Peroutka, J. Neurosci., 7(3), 1987, 894-903; with only minor modifications. In vitro IC50 (nM) test values were determined for the compounds of this invention employing tritiated serotonin.

SMILES	melting point	pIC50 [1]
CCCCNC(=O)c1ccc2[nH]cc(CCCN3CCN(c4ncncc4OC)CC3)c2c1.Cl	180 to 185 °C	
COc1cncnc1N1CCN(CCCc2c[nH]c3ccc(N4CCCC4=O)cc23)CC1.O=C(O)C(=O)O	100 to 101 °C	
CCS(=O)(=O)Nc1ccc2[nH]cc(CCCN3CCN(c4ncncc4OC)C(C)C3)c2c1 (stereo not shown) (as salt: HCl) (hydrate or solvate) [Example 70, 1-[3-(5-Ethanesulfonylamino-1H-indol-3-yl)propyl]-4-(5-methoxy-4-pyrimidinyl)-3-methylpiperazine]	212 to 214 °C	
COc1cncnc1N1CCN(CCCc2c[nH]c3ccccc23)CC1C (stereo not shown) (as salt: HCl) [Example 62]	185 °C (dec.)	
CCS(=O)(=O)N(C)c1ccc2[nH]cc(CCCN3CCN(c4ncncc4OC)CC3)c2c1 (as salt: HCl) [Example 68]	223 to 225 °C	
CCS(=O)(=O)N(C)c1ccc2[nH]cc(CCCN3CCN(c4ncncc4OC)C(C)C3)c2c1 (stereo not shown) (as salt: HCl) [Example 69]	205 to 207 °C	
COc1cncnc1N1CCN(CCCc2c[nH]c3c(F)cc(F)cc23)CC1 (as salt: HCl) [Example 76]	> 250 °C (dec.)	
COc1cncnc1N1CCN(CCCc2c[nH]c3ccc(CS(=O)(=O)N(C)C)cc23)CC1 (as salt: hydrochloride) (hydrate or solvate) [Example 30, 1-[3-[5-[[(Dimethylamino)sulfonyl]methyl]-1H-indol-3-yl]propyl]-4-(5-methoxy-4-pyrimidinyl)piperazine]	210 °C (dec.)	
COc1cncnc1N1CCN(CCC(C)c2c[nH]c3ccccc23)CC1 (stereo not shown) (as salt: hydrochloride) [Example 53, 1-[3-(1H-indol-3-yl)butyl]-4-(5-methoxy-4-pyrimidinyl)piperazine]	169 to 172 °C (dec.)	
COc1cncnc1N1CCN(CCCc2c[nH]c3ccc(N(C)S(=O)(=O)C(F)(F)F)cc23)CC1 (as salt: salt) [Example 26, 1-[3-[5-[Methyl(trifluoromethanesulfonyl)amino]-1H-indol-3-yl]propyl]-4-(5-methoxy-4-pyrimidinyl)piperazine]	> 230 °C	
COc1cncnc1N1CCN(CCCc2c[nH]c3ccc(CCS(C)(=O)=O)cc23)CC1C (stereo not shown) (as salt: salt) [Example 51, 4-(5-Methoxy-4-pyrimidinyl)-1-[3-[5-[2-(methylsulfonyl)ethyl]-1H-indol-3-yl]propyl]-3-methylpiperazine]	220 to 223 °C	
CCC(CCc1c[nH]c2ccccc12)N1CCN(c2ncncc2OC)CC1 (stereo not shown) (as salt: salt) [Example 54, 3-[3-[4-(5-Methoxy-4-pyrimidinyl)-1-piperazinyl]pentyl]indole]	145 °C (dec.)	
CCOc1cncnc1N1CCN(CCCc2c[nH]c3ccccc23)CC1.Cl.O (hydrate or solvate) [Example 52, 4-(5-Ethoxy-4-pyrimidinyl)-1-[3-(1H-indol-3-yl)propyl]piperazine hydrochloride hydrate]	> 230 °C	
CCS(=O)(=O)N(C)Cc1ccc2[nH]cc(CCCN3CCN(c4ncncc4OC)CC3)c2c1 [Example 38, 4-(5-Methoxy-4-pyrimidinyl)-1-[[5-[[methyl(ethylsulfonyl)amino]-methyl]-1H-indol-3-yl]propyl]piperazine]	113 to 115 °C	
CCS(=O)(=O)N(Cc1ccccc1)Cc1ccc2[nH]cc(CCCN3CCN(c4ncncc4OC)CC3)c2c1 [Example 39, 4-(5-Methoxy-4-pyrimidinyl)-1-[[5-[[phenylmethyl(ethylsulfonyl)amino]-methyl]-1H-indol-3-yl]propyl]piperazine]	73 to 75 °C	
CCOc1cncnc1N1CCN(CCCc2c[nH]c3ccccc23)CC1 [Example 52, 4-(5-Ethoxy-4-pyrimidinyl)-1-[3-(1H-indol-3-yl)propyl]piperazine hydrochloride hydrate]		8.70
COc1cncnc1N1CCN(CCC(C)c2c[nH]c3ccccc23)CC1 (stereo not shown) [Example 53, 1-[3-(1H-indol-3-yl)butyl]-4-(5-methoxy-4-pyrimidinyl)piperazine]		8.30
CCC(CCc1c[nH]c2ccccc12)N1CCN(c2ncncc2OC)CC1 (stereo not shown) [Example 54, 3-[3-[4-(5-Methoxy-4-pyrimidinyl)-1-piperazinyl]pentyl]indole]		7.69
COc1cncnc1N1CCN(CCCc2c[nH]c3ccccc23)CC1C (stereo not shown) [Example 62]		8.38
CCS(=O)(=O)N(C)c1ccc2[nH]cc(CCCN3CCN(c4ncncc4OC)C(C)C3)c2c1 (stereo not shown) [Example 69]		7.72
CCS(=O)(=O)Nc1ccc2[nH]cc(CCCN3CCN(c4ncncc4OC)C(C)C3)c2c1 (stereo not shown) [Example 70, 1-[3-(5-Ethanesulfonylamino-1H-indol-3-yl)propyl]-4-(5-methoxy-4-pyrimidinyl)-3-methylpiperazine]		7.77
COc1cncnc1N1CCN(CCCc2c[nH]c3cc(F)c(F)cc23)CC1 [Example 74]	102 to 104 °C	7.54
COc1cncnc1N1CCN(CCCc2c[nH]c3c(F)ccc(F)c23)CC1 [Example 75]	160 to 165 °C	8.29
COc1cncnc1N1CCN(CCCc2c[nH]c3c(F)cc(F)cc23)CC1 [Example 76]		8.09

Now from value to compound:

melting point	pIC50 [1]	SMILES
215 to 217 °C (dec.)		COc1cncnc1N1CCN(CCCc2c[nH]c3ccc(C(C)=O)cc23)CC1.Cl
180 °C (dec.)		COc1cncnc1N1CCN(CCCc2c[nH]c3ccc(OCc4ccccc4)cc23)CC1 (as salt: HCl) (hydrate or solvate) [Example 72]
150 to 152 °C		COc1cncnc1N1CCN(CCCc2c[nH]c3ccc(NS(C)(=O)=O)cc23)CC1 (as salt: HCl) [Example 63]
227 to 230 °C		COc1cncnc1N1CCN(CCCc2c[nH]c3ccc(N(C)S(C)(=O)=O)cc23)CC1 (as salt: HCl) [Example 65]
140 to 145 °C		CCS(=O)(=O)Nc1ccc2[nH]cc(CCCN3CCN(c4ncncc4OC)CC3)c2c1 (as salt: HCl) [Example 67]
130 to 150 °C (dec.)		COc1ccc2[nH]cc(CCCN3CCN(c4ncncc4OC)CC3)c2c1 (as salt: HCl) [Example 73]
204 to 206 °C		COc1cncnc1N1CCN(CCCc2c[nH]c3ccc(CNS(C)(=O)=O)cc23)CC1 (as salt: hydrochloride) (hydrate or solvate) [Example 31, 4-(5-Methoxy-4-pyrimidinyl)-1-[[5-[[(methylsulfonyl)amino]methyl]-1H-indol-3-yl]propyl]piperazine]
198 to 200 °C (dec.)		COc1cncnc1N1CCN(CCCc2c[nH]c3ccc(OCC#N)cc23)CC1 (as salt: hydrochloride) [Example 45, 3-[3-[4-(5-Methoxy-4-pyrimidinyl)-1-piperazinyl]propyl]-5-(cyanomethyl)oxyindole]
215 °C		COc1cncnc1N1CCN(CCCc2c[nH]c3ccc(O)cc23)CC1 (as salt: hydrochloride) [Example 55, 1-[3-(5-Hydroxy-1H-indol-3-yl)propyl]-4-(5-methoxy-4-pyrimidinyl)piperazine]
119 to 122 °C		COc1cncnc1N1CCN(CCCc2c[nH]c3ccc(F)cc23)CC1 (as salt: hydrochloride) [Example 60, 3-(3-(4-(5-methoxy-4-pyrimidinyl)-1-piperazinyl)propyl)-5-fluoro-1H-indole hydrochloride]
192 °C (dec.)		COc1cncnc1N1CCN(CCCc2c[nH]c3ccc(N)cc23)CC1 (as salt: salt) [Example 43, 3-[3-[4-(5-Methoxy-4-pyrimidinyl)-1-piperazinyl]propyl]-5-aminoindole]
169 to 174 °C		COc1cncnc1N1CCN(CCCc2c[nH]c3ccc(CNC(C)=O)cc23)CC1 (hydrate or solvate) [Example 40, 1-[[5-[[(Acetyl)amino]methyl]-1H-indol-3-yl]propyl]-4-(5-methoxy-4-pyrimidinyl)piperazine]
153 to 154 °C		COc1cncnc1N1CCN(CCCc2c[nH]c3ccc(CCS(C)(=O)=O)cc23)CC1 [Example 50, 4-(5-Methoxy-4-pyrimidinyl)-1-[3-[5-[2-(methylsulfonyl)ethyl]-1H-indol-3-yl]propyl]piperazine]
	9.10	COc1cncnc1N1CCN(CCCc2c[nH]c3ccc(O)cc23)CC1 [Example 55, 1-[3-(5-Hydroxy-1H-indol-3-yl)propyl]-4-(5-methoxy-4-pyrimidinyl)piperazine]
	8.52	COc1cncnc1N1CCN(CCCc2c[nH]c3ccc(F)cc23)CC1 [Example 60, 3-(3-(4-(5-methoxy-4-pyrimidinyl)-1-piperazinyl)propyl)-5-fluoro-1H-indole hydrochloride]
	8.28	COc1cncnc1N1CCN(CCCc2c[nH]c3ccc(NS(C)(=O)=O)cc23)CC1 [Example 63]
	8.31	COc1cncnc1N1CCN(CCCc2c[nH]c3ccc(N(C)S(C)(=O)=O)cc23)CC1 [Example 65]
	7.86	CCS(=O)(=O)Nc1ccc2[nH]cc(CCCN3CCN(c4ncncc4OC)CC3)c2c1 [Example 67]
	7.89	CCS(=O)(=O)N(C)c1ccc2[nH]cc(CCCN3CCN(c4ncncc4OC)CC3)c2c1 [Example 68]
112 to 114 °C	8.66	CCOc1ccc2[nH]cc(CCCN3CCN(c4ncncc4OC)CC3)c2c1 [Example 71]
	7.84	COc1cncnc1N1CCN(CCCc2c[nH]c3ccc(OCc4ccccc4)cc23)CC1 [Example 72]
	8.96	COc1ccc2[nH]cc(CCCN3CCN(c4ncncc4OC)CC3)c2c1 [Example 73]
